Results taken from article PMC8206213, “An L-2-hydroxyglutarate biosensor based on specific transcriptional regulator LhgR” (Nature Communications, 2021).
Where “and” joins values, the source holds several entries; their conditions need not be identical. Equal values may be shown once.

Assay: LHGFR expressed in E. coli BL21(DE3), response to exogenous L-2-HG (time course and dose-response)
Assay type: cell-based
Details: Fig. 5a
Protocol: To characterize the sensitivity and specificity of LHGFR expressed in E. coli BL21(DE3), 90 μL cell suspensions following 8 h carbon starvation were mixed with 10 μL increasing concentrations of L-2-HG or other compounds, and then added into a black 96-well plate (total 100 μL/per well), the fluorescence intensities were determined using an EnSight microplate reader (PerkinElmer, USA) and the following instrument settings: excitation at 430 nm, emission at 485 nm (mTFP) and 528 nm (Venus), time intervals of 5 min, the temperature at 37 °C, and shake at 180 rpm.

Structure (SMILES): O=C(O)CC[C@H](O)C(=O)O [L-2-HG, L-2-Hydroxyglutarate]
- Emission ratio (100 μM L-2-HG, 45 min): 1.032 and 1.026 and 1.029
- Emission ratio (100 μM L-2-HG, 50 min): 1.0383 and 1.034 and 1.036
- Emission ratio (100 μM L-2-HG, 55 min): 1.032 and 1.026 and 1.035
- Emission ratio (100 μM L-2-HG, 60 min): 1.021 and 1.025 and 1.037
- Emission ratio (100 μM L-2-HG, 65 min): 1.0313 and 1.027 and 1.042
- Emission ratio (100 μM L-2-HG, 70 min): 1.0328 and 1.039 and 1.045
- Emission ratio (100 μM L-2-HG, 75 min): 1.033 and 1.036 and 1.056
- Emission ratio (100 μM L-2-HG, 80 min): 1.038 and 1.023 and 1.047
- Emission ratio (100 μM L-2-HG, 85 min): 1.027 and 1.0315 and 1.0551
- Emission ratio (100 μM L-2-HG, 90 min): 1.039 and 1.022 and 1.053
- Emission ratio (200 μM L-2-HG, 0 min): 0.9917 and 0.9725 and 0.9805
- Emission ratio (200 μM L-2-HG, 5 min): 1.014 and 1.003 and 1.0079
- Emission ratio (200 μM L-2-HG, 10 min): 1.023 and 1.0171 and 1.02
- Emission ratio (200 μM L-2-HG, 15 min): 1.025 and 1.029 and 1.038
- Emission ratio (200 μM L-2-HG, 20 min): 1.048 and 1.05 and 1.039
- Emission ratio (200 μM L-2-HG, 25 min): 1.049 and 1.058 and 1.042
- Emission ratio (200 μM L-2-HG, 30 min): 1.046 and 1.049 and 1.051
- Emission ratio (200 μM L-2-HG, 35 min): 1.046 (2×) and 1.055
- Emission ratio (200 μM L-2-HG, 40 min): 1.05 and 1.054 and 1.06
- Emission ratio (200 μM L-2-HG, 45 min): 1.052 and 1.0481 and 1.064
- Emission ratio (200 μM L-2-HG, 50 min): 1.061 and 1.056 and 1.069
- Emission ratio (200 μM L-2-HG, 55 min): 1.06 and 1.0497 and 1.072
- Emission ratio (200 μM L-2-HG, 60 min): 1.062 and 1.046 and 1.073
- Emission ratio (200 μM L-2-HG, 65 min): 1.05 and 1.055 and 1.074
- Emission ratio (200 μM L-2-HG, 70 min): 1.061 and 1.042 and 1.07
- Emission ratio (200 μM L-2-HG, 75 min): 1.068 and 1.046 and 1.072
- Emission ratio (200 μM L-2-HG, 80 min): 1.063 and 1.037 and 1.071
- Emission ratio (200 μM L-2-HG, 85 min): 1.058 and 1.051 and 1.076
- Emission ratio (200 μM L-2-HG, 90 min): 1.065 and 1.04 and 1.07
- Emission ratio (1 mM L-2-HG, 0 min): 1.009 and 0.986 and 0.9798
- Emission ratio (1 mM L-2-HG, 5 min): 1.043 and 1.0226 and 1.019
- Emission ratio (1 mM L-2-HG, 10 min): 1.061 and 1.055 and 1.04
- Emission ratio (1 mM L-2-HG, 15 min): 1.087 and 1.082 and 1.067
- Emission ratio (1 mM L-2-HG, 20 min): 1.121 and 1.102 and 1.088
- Emission ratio (1 mM L-2-HG, 25 min): 1.134 and 1.124 and 1.105
- Emission ratio (1 mM L-2-HG, 30 min): 1.1596 and 1.147 and 1.142
- Emission ratio (1 mM L-2-HG, 35 min): 1.168 and 1.165 and 1.162
- Emission ratio (1 mM L-2-HG, 40 min): 1.202 and 1.191 and 1.172
- Emission ratio (1 mM L-2-HG, 45 min): 1.22 and 1.2003 and 1.196
- Emission ratio (1 mM L-2-HG, 50 min): 1.242 and 1.221 and 1.214
- Emission ratio (1 mM L-2-HG, 55 min): 1.254 and 1.245 and 1.226
- Emission ratio (1 mM L-2-HG, 60 min): 1.262 and 1.251 and 1.2291
- Emission ratio (1 mM L-2-HG, 65 min): 1.264 and 1.242 and 1.229
- Emission ratio (1 mM L-2-HG, 70 min): 1.261 and 1.241 and 1.2295
- Emission ratio (1 mM L-2-HG, 75 min): 1.265 and 1.246 and 1.229
- Emission ratio (1 mM L-2-HG, 80 min): 1.265 and 1.238 and 1.24
- Emission ratio (1 mM L-2-HG, 85 min): 1.257 and 1.244 and 1.238
- Emission ratio (1 mM L-2-HG, 90 min): 1.253 and 1.243 (2×)
- Emission ratio (2 mM L-2-HG, 0 min): 1.001 and 0.9869 and 0.9858
- Emission ratio (2 mM L-2-HG, 5 min): 1.042 and 1.028 and 1.0185
- Emission ratio (2 mM L-2-HG, 10 min): 1.085 and 1.067 and 1.059
- Emission ratio (2 mM L-2-HG, 15 min): 1.125 and 1.11 and 1.101
- Emission ratio (2 mM L-2-HG, 20 min): 1.179 and 1.162 and 1.146
- Emission ratio (2 mM L-2-HG, 25 min): 1.241 and 1.208 and 1.197
- Emission ratio (2 mM L-2-HG, 30 min): 1.288 and 1.254 and 1.257
- Emission ratio (2 mM L-2-HG, 35 min): 1.301 and 1.278 and 1.2733
- Emission ratio (2 mM L-2-HG, 40 min): 1.333 and 1.31 and 1.292
- Emission ratio (2 mM L-2-HG, 45 min): 1.337 and 1.329 and 1.307
- Emission ratio (2 mM L-2-HG, 50 min): 1.347 and 1.335 and 1.324
- Emission ratio (2 mM L-2-HG, 55 min): 1.344 and 1.327 and 1.336
- Emission ratio (2 mM L-2-HG, 60 min): 1.352 and 1.339 and 1.329
- Emission ratio (2 mM L-2-HG, 65 min): 1.34 and 1.338 and 1.3346
- Emission ratio (2 mM L-2-HG, 70 min): 1.362 and 1.355 and 1.346
- Emission ratio (2 mM L-2-HG, 75 min): 1.365 and 1.3372 and 1.347
- Emission ratio (2 mM L-2-HG, 80 min): 1.351 and 1.344 (2×)
- Emission ratio (2 mM L-2-HG, 85 min): 1.353 and 1.367 and 1.357
- Emission ratio (2 mM L-2-HG, 90 min): 1.364 and 1.351 and 1.361
- Emission ratio (10 mM L-2-HG, 0 min): 0.9626 and 0.9634 and 0.9687
- Emission ratio (10 mM L-2-HG, 5 min): 1.087 and 1.079 and 1.06
- Emission ratio (10 mM L-2-HG, 10 min): 1.2277 and 1.2165 and 1.18
- Emission ratio (10 mM L-2-HG, 15 min): 1.322 and 1.305 and 1.285
- Emission ratio (10 mM L-2-HG, 20 min): 1.375 and 1.367 and 1.334
- Emission ratio (10 mM L-2-HG, 25 min): 1.391 and 1.39 and 1.353
- Emission ratio (10 mM L-2-HG, 30 min): 1.418 and 1.395 and 1.38
- Emission ratio (10 mM L-2-HG, 35 min): 1.427 and 1.411 and 1.3928
- Emission ratio (10 mM L-2-HG, 40 min): 1.439 and 1.431 and 1.3904
- Emission ratio (10 mM L-2-HG, 45 min): 1.426 and 1.425 and 1.4013
- Emission ratio (10 mM L-2-HG, 50 min): 1.427 and 1.438 and 1.392
- Emission ratio (10 mM L-2-HG, 55 min): 1.431 (2×) and 1.402
- Emission ratio (10 mM L-2-HG, 60 min): 1.432 and 1.435 and 1.413
- Emission ratio (10 mM L-2-HG, 65 min): 1.425 and 1.426 and 1.404
- Emission ratio (10 mM L-2-HG, 70 min): 1.4381 and 1.438 and 1.417
- Emission ratio (10 mM L-2-HG, 75 min): 1.426 and 1.4264 and 1.415
- Emission ratio (10 mM L-2-HG, 80 min): 1.4478 and 1.43 and 1.416
- Emission ratio (10 mM L-2-HG, 85 min): 1.446 and 1.432 and 1.415
- Emission ratio (10 mM L-2-HG, 90 min): 1.432 and 1.427 and 1.418
